Legend:
[1] = molecular target: T1, Recombinant STAT6 protein (STAT6(W123-T658)) (Homo sapiens, UniProt P42226); test: STAT6 Fluorescence Polarization (FP) Assay; assay type: binding; settings: STAT6(W123-T658) 250 nM, probe 5-FAM-ApYKPFQDLI-NH2 2 nM, 45-minute incubation
T1 construct: STAT6(W123-T658)
T1 sequence (P42226 123-658): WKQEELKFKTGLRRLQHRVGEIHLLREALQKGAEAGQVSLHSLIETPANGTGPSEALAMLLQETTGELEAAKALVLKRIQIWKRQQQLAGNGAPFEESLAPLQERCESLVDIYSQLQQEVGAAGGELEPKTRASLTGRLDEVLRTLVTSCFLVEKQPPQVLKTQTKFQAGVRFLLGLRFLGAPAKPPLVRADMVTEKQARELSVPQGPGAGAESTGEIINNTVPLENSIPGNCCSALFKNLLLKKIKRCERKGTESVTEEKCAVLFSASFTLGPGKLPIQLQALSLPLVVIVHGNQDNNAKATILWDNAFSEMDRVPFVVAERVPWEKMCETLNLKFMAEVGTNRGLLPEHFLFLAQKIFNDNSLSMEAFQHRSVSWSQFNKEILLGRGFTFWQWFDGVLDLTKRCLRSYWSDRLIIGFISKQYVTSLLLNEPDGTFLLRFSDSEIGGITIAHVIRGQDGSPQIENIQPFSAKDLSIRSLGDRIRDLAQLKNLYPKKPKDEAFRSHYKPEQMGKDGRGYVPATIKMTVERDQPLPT
Summary of the method: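 Competitive displacement of a fluorescent phosphotyrosine peptide (2 nM) from recombinant STAT6 W123-T658 (250 nM), 45 min at room temperature in 10 mM HEPES pH 7.4, 50 mM NaCl, 2 mM DTT. mP fitted against log compound for IC50, grouped A (≤300 nM) to D (>30 μM).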

[2] = molecular target: T2, Recombinant STAT3 protein (STAT3(G127-I722)) (Homo sapiens, UniProt P40763); test: STAT3 Fluorescence Polarization (FP) Assay; assay type: binding; settings: STAT3(G127-I722) 25 nM, probe 5-FAM-GpYLPQTV-NH2 2 nM, 45-minute incubation
T2 construct: STAT3(G127-I722)
Summary of the method: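 Serially diluted compounds (1% DMSO) were mixed with 2 nM fluorescent phosphotyrosine peptide and 25 nM STAT3 construct G127-I722, pH 7.4, incubated 45 min at room temperature. IC50 values from fitted polarization curves are reported as categories A (≤100 nM), B, C, D (>10 μM).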

T2 sequence (P40763 127-722, species assumed): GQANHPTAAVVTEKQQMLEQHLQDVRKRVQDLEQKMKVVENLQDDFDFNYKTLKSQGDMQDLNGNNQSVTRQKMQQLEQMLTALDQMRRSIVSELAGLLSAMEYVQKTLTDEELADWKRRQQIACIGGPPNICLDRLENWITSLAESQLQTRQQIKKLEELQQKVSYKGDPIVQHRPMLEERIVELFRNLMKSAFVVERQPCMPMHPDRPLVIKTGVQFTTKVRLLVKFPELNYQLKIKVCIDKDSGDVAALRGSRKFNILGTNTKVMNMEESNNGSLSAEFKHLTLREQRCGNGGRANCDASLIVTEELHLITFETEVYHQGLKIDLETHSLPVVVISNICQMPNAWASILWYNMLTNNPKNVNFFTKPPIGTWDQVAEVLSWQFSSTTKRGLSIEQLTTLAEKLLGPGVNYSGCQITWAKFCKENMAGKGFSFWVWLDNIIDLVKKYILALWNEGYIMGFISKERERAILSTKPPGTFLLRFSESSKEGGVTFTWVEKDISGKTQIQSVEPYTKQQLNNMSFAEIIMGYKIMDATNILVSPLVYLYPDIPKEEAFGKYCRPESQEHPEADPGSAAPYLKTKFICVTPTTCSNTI

COc1ccncc1C1CN(C(=O)[C@@H]2CC[C@@H]3C[C@@H]4C[C@@H]4C[C@H](NC(=O)c4cc5cc([C@H](F)P(=O)(O)O)ccc5s4)C(=O)N32)C1 (single isomer, unassigned) [Example 353]
IC50 [1]: 3000 to 30000 nM | IC50 [2]: < 100 nM

O=C(N[C@H]1C[C@@H]2C[C@@H]2C[C@H]2CC[C@@H](C(=O)N3C[C@H]4[C@@H]3CCN4c3cccnc3)N2C1=O)c1cc2cc(C(F)P(=O)(O)O)ccc2s1 (stereo partly drawn) [Example 295, (fluoro(2-(((3S,6S,7aS,8aR,9aR)-5-oxo-3-((1S,5S)-2-(pyridin-3-yl)-2,6-diazabicyclo[3.2.0]heptane-6-carbonyl)decahydro-1H-cyclopropa[d]pyrrolo[1,2-a]azocin-6-yl)carbamoyl)benzo[b]thiophen-5-yl)methyl)phosphonic acid]
IC50 [1]: 300 to 3000 nM | IC50 [2]: < 100 nM

O=C(N[C@H]1C[C@@H]2C[C@@H]2C[C@H]2CC[C@@H](C(=O)N3CC[C@@H](C(=O)N4CCOCC4)C3)N2C1=O)c1cc2cc(C(F)(F)P(=O)(O)O)ccc2s1 (single isomer, unassigned) [Compound 98]
IC50 [1]: 3000 to 30000 nM | IC50 [2]: 100 to 1000 nM

O=C(N[C@H]1C[C@@H]2C[C@@H]2C[C@H]2CC[C@@H](C(=O)N3CC(Cc4cccnc4)C3)N2C1=O)c1cc2cc(CP(=O)(O)O)ccc2s1 [Example 380, ((2-(((3S,6S,7aS,8aR,9aR)-5-oxo-3-(3-(pyridin-3-ylmethyl)azetidine-1-carbonyl)decahydro-1H-cyclopropa[d]pyrrolo[1,2-a]azocin-6-yl)carbamoyl)benzo[b]thiophen-5-yl)methyl)phosphonic acid]
IC50 [1]: 3000 to 30000 nM | IC50 [2]: 100 to 1000 nM

O=C(N[C@H]1C[C@H]2C[C@H]2C[C@H]2CC[C@@H](C(=O)NC3CN(C(=O)CCC(F)(F)F)C3)N2C1=O)c1cc2cc(C(F)(F)P(=O)(O)O)ccc2s1 [Compound 63, (difluoro(2-(((3S,6S,7aR,8aS,9aR)-5-oxo-3-((1-(4,4,4-trifluorobutanoyl)azetidin-3-yl)carbamoyl)decahydro-1H-cyclopropa[d]pyrrolo[1,2-a]azocin-6-yl)carbamoyl)benzo[b]thiophen-5-yl)methyl)phosphonic acid]
IC50 [1]: 3000 to 30000 nM | IC50 [2]: < 100 nM

O=C(N[C@H]1C[C@@H]2C[C@@H]2C[C@H]2CC[C@@H](C(=O)N3CCN(C(=O)[C@@H]4CCOC4)CC3)N2C1=O)c1cc2cc(C(F)(F)P(=O)(O)O)ccc2s1 [Example 7, (difluoro(2-(((3S,6S,7aS,8aR,9aR)-5-oxo-3-(4-((R)-tetrahydrofuran-3-carbonyl)piperazine-1-carbonyl)decahydro-1H-cyclopropa[d]pyrrolo[1,2-a]azocin-6-yl)carbamoyl)benzo[b]thiophen-5-yl)methyl)phosphonic acid]
IC50 [1]: 300 to 3000 nM | IC50 [2]: 100 to 1000 nM

CCc1ccncc1C1CN(C(=O)[C@@H]2CC[C@@H]3C[C@H]4C[C@H]4C[C@H](NC(=O)c4cc5cc(C(F)P(=O)(O)O)ccc5s4)C(=O)N32)C1 (stereo partly drawn) [Example 266, ((2-(((3S,6S,7aS,8aR,9aR)-3-(3-(4-ethylpyridin-3-yl)azetidine-1-carbonyl)-5-oxodecahydro-1H-cyclopropa[d]pyrrolo[1,2-a]azocin-6-yl)carbamoyl)benzo[b]thiophen-5-yl)fluoromethyl)phosphonic acid]
IC50 [1]: 3000 to 30000 nM | IC50 [2]: < 100 nM

CC(=O)N1CC[C@H](NC(=O)[C@@H]2CC[C@@H]3C[C@H]4C[C@H]4C[C@H](NC(=O)c4cc5cc(C(F)(F)P(=O)(O)O)ccc5s4)C(=O)N32)C1 [Compound 117, ((2-(((3S,6S,7aS,8aR,9aR)-3-(((S)-1-acetylpyrrolidin-3-yl)carbamoyl)-5-oxodecahydro-1H-cyclopropa[d]pyrrolo[1,2-a]azocin-6-yl)carbamoyl)benzo[b]thiophen-5-yl)difluoromethyl)phosphonic acid]
IC50 [1]: 300 to 3000 nM | IC50 [2]: < 100 nM

O=C(N[C@H]1C[C@@H]2C[C@@H]2C[C@H]2CC[C@@H](C(=O)N3CC(Cc4cc(F)ccc4F)C3)N2C1=O)c1cc2cc(CP(=O)(O)O)ccc2s1 [Example 378, ((2-(((3S,6S,7aS,8aR,9aR)-3-(3-(2,5-difluorobenzyl)azetidine-1-carbonyl)-5-oxodecahydro-1H-cyclopropa[d]pyrrolo[1,2-a]azocin-6-yl)carbamoyl)benzo[b]thiophen-5-yl)methyl)phosphonic acid]
IC50 [1]: 3000 to 30000 nM | IC50 [2]: 1000 to 10000 nM

O=C(N[C@H]1C[C@@H]2C[C@@H]2C[C@H]2CC[C@@H](C(=O)N3CC(c4cn[nH]c4)C3)N2C1=O)c1cc2cc(C(F)(F)P(=O)(O)O)ccc2s1 [Example 288, ((2-(((3S,6S,7aS,8aR,9aR)-3-(3-(1H-pyrazol-4-yl)azetidine-1-carbonyl)-5-oxodecahydro-1H-cyclopropa[d]pyrrolo[1,2-a]azocin-6-yl)carbamoyl)benzo[b]thiophen-5-yl)difluoromethyl)phosphonic acid]
IC50 [1]: 3000 to 30000 nM | IC50 [2]: < 100 nM

O=C(N[C@H]1C[C@H]2C[C@H]2C[C@H]2CC[C@@H](C(=O)N3CC(c4ccccc4)C3)N2C1=O)c1cc2cc(C(F)(F)P(=O)(O)O)ccc2s1 [Compound 121]
IC50 [1]: 300 to 3000 nM | IC50 [2]: < 100 nM

O=C(N[C@H]1C[C@@H]2C[C@@H]2C[C@H]2CC[C@@H](C(=O)N3CC(c4cnccc4F)C3)N2C1=O)c1cc2cc(C(F)(F)P(=O)(O)O)ccc2s1 [Example 303, (difluoro(2-(((3S,6S,7aS,8aR,9aR)-3-(3-(4-fluoropyridin-3-yl)azetidine-1-carbonyl)-5-oxodecahydro-1H-cyclopropa[d]pyrrolo[1,2-a]azocin-6-yl)carbamoyl)benzo[b]thiophen-5-yl)methyl)phosphonic acid]
IC50 [1]: 300 to 3000 nM | IC50 [2]: < 100 nM

Cc1ccncc1C1CN(C(=O)[C@@H]2CC[C@@H]3C[C@@H]4C[C@@H]4C[C@H](NC(=O)c4cc5cc(CP(=O)(O)O)ccc5s4)C(=O)N32)C1 [Example 243, ((2-(((3S,6S,7aR,8aS,9aR)-3-(3-(4-methylpyridin-3-yl)azetidine-1-carbonyl)-5-oxodecahydro-1H-cyclopropa[d]pyrrolo[1,2-a]azocin-6-yl)carbamoyl)benzo[b]thiophen-5-yl)methyl)phosphonic acid]
IC50 [1]: > 30000 nM | IC50 [2]: < 100 nM

NC(=O)N1C[C@H](NC(=O)[C@@H]2CC[C@@H]3C[C@H]4C[C@H]4C[C@H](NC(=O)c4cc5cc(C(F)P(=O)(O)O)ccc5s4)C(=O)N32)C(F)(F)C1 (stereo partly drawn) [Example 340, ((2-(((3S,6S,7aS,8aR,9aR)-3-(((S)-1-carbamoyl-4,4-difluoropyrrolidin-3-yl)carbamoyl)-5-oxodecahydro-1H-cyclopropa[d]pyrrolo[1,2-a]azocin-6-yl)carbamoyl)benzo[b]thiophen-5-yl)fluoromethyl)phosphonic acid]
IC50 [1]: 3000 to 30000 nM | IC50 [2]: < 100 nM

O=C(N[C@H]1C[C@@H]2C[C@@H]2C[C@H]2CC[C@@H](C(=O)NC3CN(c4ccccn4)C3)N2C1=O)c1cc2cc(C(F)(F)P(=O)(O)O)ccc2s1 [Compound 44, (difluoro(2-(((3S,6S,7aS,8aR,9aR)-5-oxo-3-((1-(pyridin-2-yl)azetidin-3-yl)carbamoyl)decahydro-1H-cyclopropa[d]pyrrolo[1,2-a]azocin-6-yl)carbamoyl)benzo[b]thiophen-5-yl)methyl)phosphonic acid]
IC50 [1]: 300 to 3000 nM | IC50 [2]: < 100 nM

CN(C)c1ccncc1[C@H]1CN(C(=O)[C@@H]2CC[C@@H]3C[C@H]4C[C@H]4C[C@H](NC(=O)c4cc5cc([C@H](F)P(=O)(O)O)ccc5s4)C(=O)N32)C2(CC2)C1 (single isomer, unassigned) [Example 435]
IC50 [1]: ≤ 300 nM | IC50 [2]: < 100 nM

COCC1(c2ccccc2)CN(C(=O)[C@@H]2CC[C@@H]3C[C@@H]4C[C@@H]4C[C@H](NC(=O)c4cc5cc(C(F)(F)P(=O)(O)O)ccc5s4)C(=O)N32)C1 [Compound 84, (difluoro(2-(((3S,6S,7aR,8aS,9aR)-3-(3-(methoxymethyl)-3-phenylazetidine-1-carbonyl)-5-oxodecahydro-1H-cyclopropa[d]pyrrolo[1,2-a]azocin-6-yl)carbamoyl)benzo[b]thiophen-5-yl)methyl)phosphonic acid]
IC50 [1]: 3000 to 30000 nM | IC50 [2]: < 100 nM

O=C(N[C@H]1C[C@@H]2C[C@@H]2C[C@H]2CC[C@@H](C(=O)N[C@@H]3CCN(c4ccccn4)C3)N2C1=O)c1cc2cc(C(F)(F)P(=O)(O)O)ccc2s1 [Compound 39, (difluoro(2-(((3S,6S,7aS,8aR,9aR)-5-oxo-3-(((R)-1-(pyridin-2-yl)pyrrolidin-3-yl)carbamoyl)decahydro-1H-cyclopropa[d]pyrrolo[1,2-a]azocin-6-yl)carbamoyl)benzo[b]thiophen-5-yl)methyl)phosphonic acid]
IC50 [1]: 3000 to 30000 nM | IC50 [2]: < 100 nM

Source: US20250215030A1, “STAT MODULATORS AND USES THEREOF” (Recludix Pharma, Inc., priority 2022, published 2025)
